According to patent US20240060999A1, “BLOOD COAGULATION INSPECTION METHOD” (FUJIMORI KOGYO CO., LTD, priority 2020, published 2024):

Tested on: whole blood
Test: ROTEM whole blood coagulation with rabbit brain-derived tissue thromboplastin (TP) + Ca 12 mM (CTI 20 μg/mL, PKSI-527 40 μM where stated)
Type: cell-based
Settings: for prolongation of blood clotting time with rTM by addition of heparan sulfate: reagents (1)-(4), all conditions, heparan sulfate 1 μg/mL
[1] = Ex15, TP 0.033 μg/mL+Ca+CTI+PKSI-527, heparan sulfate 0.3 μg/mL, no rTM
[2] = Ex15, TP 0.033 μg/mL+Ca+CTI+PKSI-527, heparan sulfate 0.3 μg/mL, rTM 5 nM
[3] = Ex15, TP 0.033 μg/mL+Ca+CTI+PKSI-527, heparan sulfate 0.4 μg/mL, no rTM
[4] = Ex15, TP 0.033 μg/mL+Ca+CTI+PKSI-527, heparan sulfate 0.4 μg/mL, rTM 5 nM
[5] = Ex15, TP 0.033 μg/mL+Ca+CTI+PKSI-527, heparan sulfate 0.5 μg/mL, no rTM
[6] = Ex15, TP 0.033 μg/mL+Ca+CTI+PKSI-527, heparan sulfate 0.5 μg/mL, rTM 5 nM
[7] = Ex17, TP 0.011 μg/mL+Ca+CTI+PKSI-527, heparan sulfate 0.2 μg/mL, no rTM
[8] = Ex17, TP 0.011 μg/mL+Ca+CTI+PKSI-527, heparan sulfate 0.2 μg/mL, rTM 10 nM
[9] = Ex17, TP 0.011 μg/mL+Ca+CTI+PKSI-527, heparan sulfate 0.3 μg/mL, no rTM
[10] = Ex17, TP 0.011 μg/mL+Ca+CTI+PKSI-527, heparan sulfate 0.3 μg/mL, rTM 10 nM
[11] = Ex17, TP 0.011 μg/mL+Ca+CTI+PKSI-527, heparan sulfate 0.5 μg/mL, no rTM
[12] = Ex17, TP 0.011 μg/mL+Ca+CTI+PKSI-527, heparan sulfate 0.5 μg/mL, rTM 10 nM
[13] = Ex18, TP 0.0166 μg/mL+Ca+CTI+PKSI-527, heparan sulfate 0.3 μg/mL, no rTM
[14] = Ex18, TP 0.0166 μg/mL+Ca+CTI+PKSI-527, heparan sulfate 0.3 μg/mL, rTM 10 nM
[15] = Ex18, TP 0.0166 μg/mL+Ca+CTI+PKSI-527, heparan sulfate 0.5 μg/mL, no rTM
[16] = Ex18, TP 0.0166 μg/mL+Ca+CTI+PKSI-527, heparan sulfate 0.5 μg/mL, rTM 10 nM
[17] = Ex18, TP 0.0166 μg/mL+Ca+CTI+PKSI-527, heparan sulfate 1.0 μg/mL, no rTM
[18] = Ex18, TP 0.0166 μg/mL+Ca+CTI+PKSI-527, heparan sulfate 1.0 μg/mL, rTM 10 nM

Heparan sulfate
CT (clotting time) (Ex15, TP 0.033 μg/mL+Ca+CTI+PKSI-527, heparan sulfate 0.2 μg/mL, rTM 5 nM): 749 s | CFT (clot formation time) [1]: 171 s | CT (clotting time) [1]: 688 s | CFT (clot formation time) [2]: 251 s | CT (clotting time) [2]: 825 s | CFT (clot formation time) [3]: 206 s | CT (clotting time) [3]: 762 s | CFT (clot formation time) [4]: 334 s | CT (clotting time) [4]: 955 s | CFT (clot formation time) [5]: 248 s | CT (clotting time) [5]: 837 s | CFT (clot formation time) [6]: 407 s | CT (clotting time) [6]: 995 s | blood clotting time (Ex17, TP 0.011 μg/mL+Ca+CTI+PKSI-527, heparan sulfate 0.2 μg/mL or more, rTM 10 nM): ≥ 1 h | CFT (clot formation time) [7]: 578 s | CT (clotting time) [7]: 1408 s | CFT (clot formation time) [8]: No CFT | CT (clotting time) [8]: No CT | CFT (clot formation time) [9]: 430 s | CT (clotting time) [9]: 1630 s | CFT (clot formation time) [10]: No CFT | CT (clotting time) [10]: No CT | CFT (clot formation time) [11]: 386 s | CT (clotting time) [11]: 1178 s | CFT (clot formation time) [12]: No CFT | CT (clotting time) [12]: No CT | CFT (clot formation time) [13]: 256 s | CT (clotting time) [13]: 1035 s | CFT (clot formation time) [14]: 292.0 s | CT (clotting time) [14]: 904 s | CFT (clot formation time) [15]: 407 s | CT (clotting time) [15]: 1162 s | CFT (clot formation time) [16]: 742.0 s | CT (clotting time) [16]: 1064 s | CFT (clot formation time) [17]: No CT | CT (clotting time) [17]: 1999 s | CFT (clot formation time) [18]: No CFT | CT (clotting time) [18]: No CT | blood clotting time [18]: ≥ 1 h | CT (clotting time) (Ex30, reagent (1): TP 0.664 μg/mL+heparan sulfate 1 μg/mL+Ca, no rTM): 220 s | CT (clotting time) (Ex30, reagent (1): TP 0.664 μg/mL+heparan sulfate 1 μg/mL+Ca, rTM 25 nM): 533 s | CT (clotting time) (Ex30, reagent (1): TP 0.664 μg/mL+heparan sulfate 1 μg/mL+Ca, rTM 25 nM+APC inhibitory aptamer 1 μM): 260 s | CT (clotting time) (Ex30, reagent (2): TP 0.664 μg/mL+heparan sulfate 1 μg/mL+Ca+CTI, no rTM): 214 s | CT (clotting time) (Ex30, reagent (2): TP 0.664 μg/mL+heparan sulfate 1 μg/mL+Ca+CTI, rTM 25 nM): 448 s | CT (clotting time) (Ex30, reagent (2): TP 0.664 μg/mL+heparan sulfate 1 μg/mL+Ca+CTI, rTM 25 nM+APC inhibitory aptamer 1 μM): 287 s | CT (clotting time) (Ex30, reagent (3): TP 0.664 μg/mL+heparan sulfate 1 μg/mL+Ca+PKSI-527, no rTM): 220 s | CT (clotting time) (Ex30, reagent (3): TP 0.664 μg/mL+heparan sulfate 1 μg/mL+Ca+PKSI-527, rTM 25 nM): 444 s | CT (clotting time) (Ex30, reagent (3): TP 0.664 μg/mL+heparan sulfate 1 μg/mL+Ca+PKSI-527, rTM 25 nM+APC inhibitory aptamer 1 μM): 291 s | CT (clotting time) (Ex30, reagent (4): TP 0.664 μg/mL+heparan sulfate 1 μg/mL+Ca+CTI+PKSI-527, no rTM): 226 s | CT (clotting time) (Ex30, reagent (4): TP 0.664 μg/mL+heparan sulfate 1 μg/mL+Ca+CTI+PKSI-527, rTM 25 nM): 440 s | CT (clotting time) (Ex30, reagent (4): TP 0.664 μg/mL+heparan sulfate 1 μg/mL+Ca+CTI+PKSI-527, rTM 25 nM+APC inhibitory aptamer 1 μM): 319 s | prolongation of blood clotting time with rTM by addition of heparan sulfate (Ex30, rTM 25 nM): markedly prolonged | CT (clotting time) (Ex31, reagent (1): TP 0.664 μg/mL+heparan sulfate 1 μg/mL+Ca, no rTM): 220 s | CT (clotting time) (Ex31, reagent (1): TP 0.664 μg/mL+heparan sulfate 1 μg/mL+Ca, rTM 30 nM): 766 s | CT (clotting time) (Ex31, reagent (1): TP 0.664 μg/mL+heparan sulfate 1 μg/mL+Ca, rTM 30 nM+APC inhibitory aptamer 1 μM): 301 s | CT (clotting time) (Ex31, reagent (2): TP 0.664 μg/mL+heparan sulfate 1 μg/mL+Ca+CTI, no rTM): 214 s | CT (clotting time) (Ex31, reagent (2): TP 0.664 μg/mL+heparan sulfate 1 μg/mL+Ca+CTI, rTM 30 nM): 613 s | CT (clotting time) (Ex31, reagent (2): TP 0.664 μg/mL+heparan sulfate 1 μg/mL+Ca+CTI, rTM 30 nM+APC inhibitory aptamer 1 μM): 286 s | CT (clotting time) (Ex31, reagent (3): TP 0.664 μg/mL+heparan sulfate 1 μg/mL+Ca+PKSI-527, no rTM): 220 s | CT (clotting time) (Ex31, reagent (3): TP 0.664 μg/mL+heparan sulfate 1 μg/mL+Ca+PKSI-527, rTM 30 nM): 517 s | CT (clotting time) (Ex31, reagent (3): TP 0.664 μg/mL+heparan sulfate 1 μg/mL+Ca+PKSI-527, rTM 30 nM+APC inhibitory aptamer 1 μM): 297 s | CT (clotting time) (Ex31, reagent (4): TP 0.664 μg/mL+heparan sulfate 1 μg/mL+Ca+CTI+PKSI-527, no rTM): 226 s | CT (clotting time) (Ex31, reagent (4): TP 0.664 μg/mL+heparan sulfate 1 μg/mL+Ca+CTI+PKSI-527, rTM 30 nM): 557 s | CT (clotting time) (Ex31, reagent (4): TP 0.664 μg/mL+heparan sulfate 1 μg/mL+Ca+CTI+PKSI-527, rTM 30 nM+APC inhibitory aptamer 1 μM): 307 s | prolongation of blood clotting time with rTM by addition of heparan sulfate (Ex31, rTM 30 nM): markedly prolonged
